This passage reports EC50 results from US11149036B2, “3-(1H-pyrazol-4-yl)pyridine allosteric modulators of the M4 muscarinic acetylcholine receptor” (Merck Sharp & Dohme Corp., priority 2017, dated 2021).

For this test, the target named is T1, human M4 muscarinic acetylcholine receptor (Homo sapiens, UniProt P08173).
T1 construct: expressed in transfected cells; host or cells: CHO-K1
T1 sequence (P08173 1-479): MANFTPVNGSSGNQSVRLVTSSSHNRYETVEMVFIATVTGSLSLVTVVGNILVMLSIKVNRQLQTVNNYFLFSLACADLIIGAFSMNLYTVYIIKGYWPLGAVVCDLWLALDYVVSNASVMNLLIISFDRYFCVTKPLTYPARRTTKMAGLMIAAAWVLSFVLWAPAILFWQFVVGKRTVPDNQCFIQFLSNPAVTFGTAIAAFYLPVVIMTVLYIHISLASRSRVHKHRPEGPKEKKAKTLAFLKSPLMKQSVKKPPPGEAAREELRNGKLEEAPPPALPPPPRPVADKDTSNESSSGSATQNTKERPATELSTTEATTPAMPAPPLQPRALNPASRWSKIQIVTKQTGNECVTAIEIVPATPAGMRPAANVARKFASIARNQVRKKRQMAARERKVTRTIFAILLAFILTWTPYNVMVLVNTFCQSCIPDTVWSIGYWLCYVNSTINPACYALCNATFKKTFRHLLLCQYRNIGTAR
Briefly: human FLIPR-based M4 PAM assay (CHO-K1 cells with human M4 receptor and Gaqi5, calcium dye fluorescence). Type of test: cell-based. As to conditions: inflection point (IP) of dose response curve, acetylcholine added at 20% of maximum response, read-out: M4 FLIPPR Hu IP. The method in brief: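 CHO-K1 cells stably expressing human M4 with chimeric Gaqi5, calcium-dye loaded ~1 h at 37° C; compound added at increasing concentrations 4 min before acetylcholine at an EC20 concentration (sometimes a further EC70 addition).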
For `Fc1cnc(-c2ccn3cc(C(F)(F)F)nc3c2)c(-c2cnn(CC3(F)CCCC3)c2)c1` [Example 98, 7-(5-fluoro-3-(1-((1-fluorocyclopentyl)methyl)-1H-pyrazol-4-yl)pyridin-2-yl)-2-(trifluoromethyl)imidazo [1,2-a]pyridine], the EC50 stood at 82 nM.
Turning to `Cc1nc2cc(-c3ncc(F)cc3-c3cnn(CC4(F)CCCC4)c3)ccc2n1C` [Example 99, 5-(5-fluoro-3-(1-((1-fluorocyclopentyl)methyl)-1H-pyrazol-4-yl)pyridin-2-yl)-1,2-dimethyl-1H-benzo[d]imidazole], the EC50 is 83 nM.
In the case of `O=C1c2cc(-c3ncc(F)cc3-c3cnn(CC4(F)CCCC4)c3)ccc2CN1C1CC1` [Example 101, 2-cyclopropyl-6-(5-fluoro-3-(1-((1-fluorocyclopentyl)methyl)-1H-pyrazol-4-yl)pyridin-2-yl) isoindolin-1-one], the EC50 amounted to 69 nM.
On to `Cc1nc2cc(-c3ncc(F)cc3-c3cnn(CC4C[C@@H](F)[C@H](F)C4)c3)ccc2n1C` [Example 102], for which the EC50 was 232 nM.
For `CC1(Cn2cc(-c3c(C#N)ccnc3-c3ccc4cccnc4c3)cn2)CCCC1` [Example 103, 3-(1-((1-methylcyclopentyl)methyl)-1H-pyrazol-4-yl)-2-(quinolin-7-yl)isonicotinonitrile], the EC50 is 45 nM.
As to `FC(F)(F)c1ccc(-c2cnn(CC3CCCC3)c2)c(-c2ccc3cccnc3c2)n1` [Example 104, 7-(3-(1-(cyclopentylmethyl)-1H-pyrazol-4-yl)-6-(trifluoromethyl)pyridin-2-yl)quinoline], the EC50 is 20 nM.
As to `COc1cc2ccc(-c3nc(C)c(C#N)cc3-c3cnn(CC4(C)CCCC4)c3)cc2nn1` [Example 105, 6-(3-methoxycinnolin-7-yl)-2-methyl-5-(1-((1-methylcyclopentyl)methyl)-1H-pyrazol-4-yl)nicotinonitrile], the EC50 is 17 nM.
In the case of `Cc1nc(-c2cnc3c(c2)ncn3C)c(-c2cnn(CC3(C)CCCC3)c2)cc1C#N` [Example 106, 2-methyl-6-(3-methyl-3H-imidazo[4,5-b]pyridin-6-yl)-5-(1-((1-methylcyclopentyl)methyl)-1H-pyrazol-4-yl)nicotinonitrile], the EC50 is 82 nM.
For the compound `Cn1cnc2cc(-c3nccc(F)c3-c3cnn(CC4(C)CCCC4)c3)cnc21` [Example 107, 6-(4-fluoro-3-(1-((1-methylcyclopentyl)methyl)-1H-pyrazol-4-yl)pyridin-2-yl)-3-methyl-3H-imidazo[4,5-b] pyridine], the EC50 came to 36 nM.
With `Cn1cnc2cc(-c3nc(C(F)F)ccc3-c3cnn(CC4(F)CCCC4)c3)cnc21` [Example 108, 6-(6-(difluoromethyl)-3-(1-((1-fluorocyclopentyl)methyl)-1H-pyrazol-4-yl)pyridin-2-yl)-3-methyl-3H-imidazo[4,5-b] pyridine], the EC50 worked out at 86 nM.
On to `Cn1cnc2cc(-c3ncc(Cl)cc3-c3cnn(CC4(C)CCCC4)c3)cnc21` [Example 109, 6-(5-chloro-3-(1-((1-methylcyclopentyl)methyl)-1H-pyrazol-4-yl)pyridin-2-yl)-3-methyl-3H-imidazo[4,5-b] pyridine], for which the EC50 stood at 69 nM.
With `Cc1cn2ccc(-c3ncc(Cl)cc3-c3cnn(CC4(F)CCCC4)c3)cc2n1` [Example 110, 7-(5-chloro-3-(1-((1-fluorocyclopentyl)methyl)-1H-pyrazol-4-yl)pyridin-2-yl)-2-methylimidazo[1,2-a] pyridine], the EC50 is 23 nM.
Turning to `FC(F)c1cn2ccc(-c3ncc(Cl)cc3-c3cnn(CC4(F)CCCC4)c3)cc2n1` [Example 111, 7-(5-chloro-3-(1-((1-fluorocyclopentyl)methyl)-1H-pyrazol-4-yl)pyridin-2-yl)-2-(difluoromethyl)imidazo [1,2-a]pyridine], the EC50 was 38 nM.
As for `Cc1cnc(-c2ccn3ccnc3c2)c(-c2cnn(CC3(C)CCCC3)c2)c1` [Example 112, 7-(5-methyl-3-(1-((1-methylcyclopentyl)methyl)-1H-pyrazol-4-yl)pyridin-2-yl)imidazo[1,2-a] pyridine], the EC50 came to 46 nM.
`Cc1cnc(-c2ccn3ncnc3c2)c(-c2cnn(CC3(C)CCCC3)c2)c1` [Example 113, 7-(5-methyl-3-(1-((1-methylcyclopentyl)methyl)-1H-pyrazol-4-yl)pyridin-2-yl)-[1,2,4]triazolo[1,5-a] pyridine]: the EC50 is 79 nM.
As to `COc1nc(-c2ccn3cc(C)nc3c2)c(-c2cnn(CC3(F)CCCC3)c2)cc1F` [Example 114, 7-(5-fluoro-3-(1-((1-fluorocyclopentyl)methyl)-1H-pyrazol-4-yl)-6-methoxypyridin-2-yl)-2-methylimidazo[1,2-a]pyridine], the EC50 was 140 nM.
Turning to `Cc1cn2ccc(-c3nc(Cl)ccc3-c3cnn(CC4(C)CCCC4)c3)cc2n1` [Example 115, 7-(6-chloro-3-(1-((1-methylcyclopentyl)methyl)-1H-pyrazol-4-yl)pyridin-2-yl)-2-methylimidazo[1,2-a] pyridine], the EC50 is 21 nM.
As for `Cc1cc(-c2cnn(CC3(F)CCCC3)c2)c(-c2cnc3c(c2)C(=O)N(CC2CC2)C3)nc1Cl` [Example 116, 3-(6-chloro-3-(1-((1-fluorocyclopentyl)methyl)-1H-pyrazol-4-yl)-5-methylpyridin-2-yl)-6-(cyclopropylmethyl)-6,7-dihydro-5H-pyrrolo [3,4-b]pyridin-5-one], the EC50 amounted to 61 nM.
`Cc1cc(-c2cnn(CC3(F)CCCC3)c2)c(-c2cnc3c(c2)ncn3C)nc1Cl` [Example 117, 6-(6-chloro-3-(1-((1-fluorocyclopentyl)methyl)-1H-pyrazol-4-yl)-5-methylpyridin-2-yl)-3-methyl-3H-imidazo[4,5-b]pyridine]: the EC50 was determined as 45 nM.
With `Cc1cc(-c2cnn(CC3(F)CCCC3)c2)c(-c2ccn3cnnc3c2)nc1Cl` [Example 118, 7-(6-chloro-3-(1-((1-fluorocyclopentyl)methyl)-1H-pyrazol-4-yl)-5-methylpyridin-2-yl)-[1,2,4]triazolo[4,3-a]pyridine], the EC50 stood at 48 nM.
The same measure for `COc1cc2ccc(-c3nc(Cl)c(C)cc3-c3cnn(CC4(C)CCCC4)c3)cc2nn1` [Example 119, 7-(6-chloro-5-methyl-3-(1-((1-methylcyclopentyl)methyl)-1H-pyrazol-4-yl)pyridin-2-yl)-3-methoxycinnoline]: 5 nM; for `Cn1cnc2cc(-c3nc(C(F)F)ccc3-c3cnn(C[C@H]4CC[C@H](F)C4)c3)ccc21` [Example 120, 5-(6-(difluoromethyl)-3-(1-(((1S,3S)-3-fluorocyclopentyl)methyl)-1H-pyrazol-4-yl)pyridin-2-yl)-1-methyl-1H-benzo[d] imidazole]: 44 nM; for `Cn1cnc2cc(-c3nc(C(F)F)ccc3-c3cnn(C[C@@H]4CC[C@@H](F)C4)c3)ccc21` [Example 121, 5-(6-(difluoromethyl)-3-(1-(((1R,3R)-3-fluorocyclopentyl)methyl)-1H-pyrazol-4-yl)pyridin-2-yl)-1-methyl-1H-benzo[d] imidazole]: 50 nM.
As to `COc1cc2ccc(-c3nc(C(F)F)ccc3-c3cnn(C[C@@H]4CC[C@@H](F)C4)c3)cc2nn1` [Example 122, 7-(6-(difluoromethyl)-3-(1-(((1R,3R)-3-fluorocyclopentyl)methyl)-1H-pyrazol-4-yl)pyridin-2-yl)-3-methoxycinnoline], the EC50 came to 59 nM.
As for `COc1cc2ccc(-c3nc(C(F)F)ccc3-c3cnn(C[C@H]4CC[C@H](F)C4)c3)cc2nn1` [Example 123, 7-(6-(difluoromethyl)-3-(1-(((1S,3S)-3-fluorocyclopentyl)methyl)-1H-pyrazol-4-yl)pyridin-2-yl)-3-methoxy-cinnoline], the EC50 is 63 nM.
To `Cn1nnc2cc(-c3nc(C#N)ccc3-c3cnn(CC4(C)CCCC4)c3)ccc21` [Example 124, 6-(1-methyl-1H-benzo[d][1,2,3]triazol-5-yl)-5-(1-((1-methylcyclopentyl)methyl)-1H-pyrazol-4-yl)picolinonitrile] belongs 27 nM; to `Cn1nc2ccc(-c3nc(C#N)ccc3-c3cnn(CC4(C)CCCC4)c3)cc2n1` [Example 125, 6-(2-methyl-2H-benzo[d][1,2,3]triazol-5-yl)-5-(1-((1-methylcyclopentyl)methyl)-1H-pyrazol-4-yl)picolinonitrile], 76 nM; to `CC1(Cn2cc(-c3ccc(C#N)nc3-c3ccc4ccc(Cl)nc4c3)cn2)CCCC1` [Example 126, 6-(2-chloro-quinolin-7-yl)-5-(1-((1-methylcyclo-pentyl)methyl)-1H-pyrazol-4-yl)picolinonitrile], 78 nM.
Consider `CC1(Cn2cc(-c3ccc(C#N)nc3-c3ccc4cc(Cl)nnc4c3)cn2)CCCC1` [Example 127, 6-(3-chlorocinnolin-7-yl)-5-(1-((1-methylcyclopentyl)methyl)-1H-pyrazol-4-yl)picolinonitrile], for which the EC50 worked out at 26 nM.
For `CC1(Cn2cc(-c3ccc(C#N)nc3-c3ccc4cc(F)nnc4c3)cn2)CCCC1` [Example 128, 6-(3-fluorocinnolin-7-yl)-5-(1-((1-methylcyclopentyl)methyl)-1H-pyrazol-4-yl)picolinonitrile], the EC50 worked out at 35 nM.
